Values after ≈ are worked out from the molar mass of the structure shown.

Consider four compounds from ChEMBL document CHEMBL3994662, “In vivo instability of platensimycin and platencin: Synthesis and biological evaluation of urea- and carbamate-platensimycin” (Bioorg Med Chem, 2017).

For data set [1], the system named is Plasma. Nature of the data set: Drug uptake in C57Bl/6 mouse plasma at 10 mg/kg, iv administered as single dose measured after 60 mins by LC-MS/MS analysis. The class given is ADME, organism-based. The note with it: in vivo, 1 h.
In data set [2] the test system is Liver. Nature of the data set: Drug uptake in C57Bl/6 mouse liver at 10 mg/kg, iv administered as single dose measured after 60 mins by LC-MS/MS analysis. The format is ADME, organism-based. To be noted: in vivo, 1 h.
For data set [3], the system named is Kidney. Description: Drug uptake in C57Bl/6 mouse kidney at 10 mg/kg, iv administered as single dose measured after 60 mins by LC-MS/MS analysis. The format is ADME, organism-based. The note with it: in vivo, 1 h.
The nature of data set [4]: Drug level in C57Bl/6 mouse urine at 10 mg/kg, iv administered as single dose measured after 60 mins by LC-MS/MS analysis. The class given is ADME, organism-based. The note with it: mouse, in vivo, 1 h.
Another data set relates to Staphylococcus aureus. Nature of the data set: Antibacterial activity against Staphylococcus aureus ATCC 25923 after 18 hrs by broth dilution method. To be noted: ATCC 25923, 18 h. The class given is functional. (Broth dilution looks for growth in wells or tubes with falling amounts of substance.)
Another data set relates to Micrococcus luteus. Nature of the data set: Antibacterial activity against Micrococcus luteus ATCC 9431 after 18 hrs by broth dilution method. The class given is functional. To be noted: ATCC 9431, 18 h.
Data set [5] concerns Plasma. Nature of the data set: In vivo stability in C57Bl/6 mouse plasma assessed as compound hydrolysis at 10 mg/kg, iv administered as single dose measured after 60 mins by LC-MS/MS analysis. The class given is ADME, organism-based. The note with it: 1 h.
Data set [6] deals with Liver. Description: In vivo stability in C57Bl/6 mouse liver assessed as compound hydrolysis at 10 mg/kg, iv administered as single dose measured after 60 mins by LC-MS/MS analysis. The format is ADME, organism-based. The note with it: 1 h.
Data set [7] deals with Kidney. Nature of the data set: In vivo stability in C57Bl/6 mouse kidney assessed as compound hydrolysis at 10 mg/kg, iv administered as single dose measured after 60 mins by LC-MS/MS analysis. The format is ADME, organism-based. To be noted: 1 h.
Data set [8] is described as follows: In vivo stability in C57Bl/6 mouse urine assessed as compound hydrolysis at 10 mg/kg, iv administered as single dose measured after 60 mins by LC-MS/MS analysis. The format is ADME, organism-based. To be noted: 1 h.
Data set [9] can be described thus: Drug level in mouse hepatic microsomes treated with platensimycin at 1 uM up to 60 mins in presence of NADPH by LC-MS/MS analysis. The format is ADME, Liver, Microsome. The note with it: 1 h.
Data set [10] can be described thus: Drug level in mouse hepatic microsomes treated with platensimycin at 1 uM up to 60 mins in absence of NADPH by LC-MS/MS analysis. The format is ADME, Liver, Microsome. The note with it: 1 h.

What is called MIC is the least concentration at which growth counts as inhibited. In the case of `C[C@]12C[C@@]34C=CC(=O)[C@@](C)(CCNC(=O)Oc5c(O)ccc(C(=O)O)c5O)[C@@H]3[C@H](C[C@@H]1C4)O2`, the Drug uptake result (in the data set with Plasma [1]; in the data set with Liver [2]; in the data set on Kidney [3]; in [4]) was “Active” in each case. Also, the minimum inhibitory concentration (MIC) against Staphylococcus aureus and against Micrococcus luteus was greater than 64 µg/mL throughout. For the same compound, the Stability result (in the data set on Plasma [5]; with Liver [6]; in the data set on Kidney [7]; in data set [8]) was “Stable” throughout.
With `C[C@]12C[C@@]34C=CC(=O)[C@@](C)(CCNC(=O)Nc5c(O)ccc(C(=O)O)c5O)[C@@H]3[C@H](C[C@@H]1C4)O2`, the Drug uptake result (with Plasma [1]; in the data set on Liver [2]; in the data set on Kidney [3]; in data set [4]) was “Active” in each case. The MIC with Staphylococcus aureus and with Micrococcus luteus was greater than 64 µg/mL throughout. Besides, the Stability entry (with Plasma [5]; in the data set with Liver [6]; in the data set with Kidney [7]; in data set [8]) was “Stable” in each case.
Regarding `COC(=O)c1ccc(O)c(NC(=O)NCC[C@]2(C)C(=O)C=C[C@]34C[C@H]5C[C@H](O[C@@]5(C)C3)[C@H]42)c1O`, the figures for the MIC against Staphylococcus aureus and in the data set on Micrococcus luteus were greater than 64 µg/mL and 64 µg/mL (≈ 136 µM), respectively.
Turning to `C[C@]12C[C@@]34C=CC(=O)[C@@](C)(CCC(=O)O)[C@@H]3[C@H](C[C@@H]1C4)O2`, the Drug metabolism entry in data set [9] and in data set [10] was “Metabolite_Detected” throughout.
